Test results as given in patent US11352350B2, “IRAK degraders and uses thereof” (Kymera Therapeutics, Inc., priority 2018, dated 2022).
Where two headings read alike, the source gives them in different places.

Tests used:
IRAK4 = IRAK4 (Homo sapiens (Human), UniProt Q9NWZ3); assay: IRAK4 MSD degradation in OCI-LY10; format: cell-based
Outline: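 Remaining IRAK4 quantified by electrochemiluminescent MSD sandwich assay with two anti-IRAK4 antibodies. Compounds were dosed as 8 concentrations in 1:3 steps from a 1 to 10 μM final top on OCI-LY10 cells, incubated 4 to 24 h at 37° C. under 5% CO2. DC50 fitted with a three-parameter logistic curve.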

OCI-LY10 = assay: CTG Cell Viability Assay - OCI-LY10; format: cell-based, human; settings: OCI-LY10, 4 days, read-out: CTG Cell Viability Assay - OCI-LY10: Average external-IC50
Protocol: Compound-mediated viability effect on OCI-LY10 or TMD8 was quantitatively determined using the CellTiter-Glo® Luminescent Cell Viability Assay kit from Promega (Catalog number G7570) following manufacturer's recommended procedures. […] Compounds were then added to the assay plate with final top concentration of 10 μM and 1:3 dilution series with total of 9 doses. The final DMSO concentration was normalized to 0.2%. The assay plates were incubated at 37° C. for 4 days under 5% CO2. Then the assay plate was equilibrated at room temperature for 10 minutes. […] The data was then analyzed by software Prism 7.0 from GraphPad and the dose response curves were fit using a three-parameter logistic equation to calculate IC50.

[1] = OCI-LY10, 4 hrs, read-out: IRAK4 MSD degradation in OCI-LY10 at 4 hrs: DC50
[2] = OCI-LY10, 24 hrs, read-out: IRAK4 MSD degradation in OCI-LY10 at 24 hrs: DC50
[3] = OCI-LY10, 4 hrs, MSD, read-out: IRAK4 MSD degradation in OCI-LY10 at 4 hrs: Average external-Abs DC50
[4] = OCI-LY10, 24 hrs, MSD, read-out: IRAK4 MSD degradation in OCI-LY10 at 24 hrs: Average external-Abs DC50

Chain of IRAK4 (Q9NWZ3 whole entry): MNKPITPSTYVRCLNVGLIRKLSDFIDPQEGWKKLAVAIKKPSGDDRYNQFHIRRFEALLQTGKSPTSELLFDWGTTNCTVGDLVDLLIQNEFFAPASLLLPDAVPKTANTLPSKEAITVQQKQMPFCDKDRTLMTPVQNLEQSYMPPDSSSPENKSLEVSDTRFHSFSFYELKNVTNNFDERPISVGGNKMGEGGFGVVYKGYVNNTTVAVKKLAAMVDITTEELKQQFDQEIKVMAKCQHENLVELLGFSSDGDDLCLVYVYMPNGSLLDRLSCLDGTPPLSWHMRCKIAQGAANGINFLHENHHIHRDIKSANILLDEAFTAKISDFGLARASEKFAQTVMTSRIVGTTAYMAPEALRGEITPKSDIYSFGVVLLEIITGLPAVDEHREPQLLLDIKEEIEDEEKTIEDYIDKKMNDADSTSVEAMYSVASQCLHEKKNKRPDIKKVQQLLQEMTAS

Compound | DC50 (IRAK4; [1]) [nM] | DC50 (IRAK4; [2]) [nM] | IC50 (OCI-LY10; Homo sapiens, OCI-Ly10, 96 h) [nM] | DC50 (IRAK4; [3]) [nM] | DC50 (IRAK4; [4]) [nM] | IC50 (OCI-LY10) [nM]
O=C1CCC(N2C(=O)c3cccc(NCCCOC4CCN(C[C@H]5OC[C@H](n6cc(NC(=O)c7cnn8ccc(N9CCOCC9)nc78)c(C(F)F)n6)CO5)CC4)c3C2=O)C(=O)N1 (stereo partly shown) [I-451, N-[3-(difluoromethyl)-1-[2-[[4-[3-[[2-(2,6-dioxo-3-piperidyl)-1,3-dioxo-isoindolin-4-yl]amino]propoxy]-1-piperidyl]methyl]-1,3-dioxan-5-yl]pyrazol-4-yl]-5-morpholino-pyrazolo [1,5-a] pyrimidine-3-carboxamide] | 10 to 100 | 10 to 100 | 100 to 500 | – | – | –
Cc1nc2cccc(N(C)CCCOC3CCN(C[C@H]4CC[C@H](n5cc(NC(=O)c6cnn7ccc(N8CCOCC8)nc67)c(C(F)F)n5)CC4)CC3)c2c(=O)n1C1CCC(=O)NC1=O (stereo partly shown) [I-214] | – | – | > 1000 | > 1000 | > 1000 | –
CN(C(=O)CCCNc1cccc2c1C(=O)N(C1CCC(=O)NC1=O)C2=O)C1CCN(C[C@H]2CC[C@H](n3cc(NC(=O)c4cnn5ccc(N6C[C@H]7C[C@@H]6CO7)nc45)c(C(F)F)n3)CC2)CC1 (stereo partly shown) [I-366] | – | – | < 50 | < 10 | – | –
O=C1CCC(N2C(=O)c3cccc(NC[C@H]4CC[C@H](OC5CCN(C[C@H]6CC[C@H](n7cc(NC(=O)c8cnn9ccc(N%10CCOCC%10)nc89)c(C(F)F)n7)CC6)CC5)CC4)c3C2=O)C(=O)N1 (stereo partly shown) [I-473] | 10 to 100 | < 10 | < 50 | – | – | –
O=C1CCC(N2C(=O)c3cccc(NCCc4ccc(CNC[C@H]5CC[C@H](n6cc(NC(=O)c7cnn8ccc(N9C[C@H]%10C[C@@H]9CO%10)nc78)c(C(F)F)n6)CC5)cc4)c3C2=O)C(=O)N1 (stereo partly drawn) [I-351, N-[3-(difluoromethyl)-1-[4-[[[4-[2-[[2-(2,6-dioxo-3-piperidyl)-1,3-dioxo-isoindolin-4-yl]amino]ethyl]phenyl]methylamino]methyl]cyclohexyl]pyrazol-4-yl]-5-[(1R,4R)-2-oxa-5-azabicyclo[2.2.1]heptan-5-yl]pyrazolo[1,5-a]pyrimidine-3-carboxamide] | – | – | > 1000 | > 1000 | – | –
CN(CCCOCCCNC(=O)c1ccc(CNCc2ccc(-c3ccc4c(cnn4CC4CC4)c3)cc2)cc1)C[C@H]1CC[C@H](n2cc(NC(=O)c3coc(-c4ccnc(NCC5CC5)c4)n3)c(C(F)F)n2)CC1 [I-131] | – | – | > 1000 | > 1000 | > 1000 | –
CN(C[C@@H]1CN(CCCCc2cccc3c2C(=O)N(C2CCC(=O)NC2=O)C3=O)CCO1)C[C@H]1CC[C@H](n2cc(NC(=O)c3coc(-c4ccnc(NCC5CC5)c4)n3)c(C(F)F)n2)CC1 (stereo partly shown) [I-343] | – | – | – | 10 to 100 | – | < 50
CC[C@@H]1[C@H](F)C(=O)N[C@@H]1COc1ccc(-c2ncn(CN(C)CCCOCCCc3cccc4c3n(C)c(=O)n4C3CCC(=O)NC3=O)n2)c2cc(C(N)=O)c(OC)cc12 (stereo partly shown) [I-188] | – | – | > 1000 | 100 to 1000 | 100 to 1000 | –
NC(=O)c1nn([C@H]2CC[C@H](C(=O)NCCOCCOCCNc3cccc4c3C(=O)N(C3CCC(=O)NC3=O)C4=O)CC2)cc1NC(=O)c1coc(-c2ccnc(NCC(F)(F)F)c2)n1 (single isomer, unassigned) [I-13, N-(3-carbamoyl-1-((1r,4r)-4-((2-(2-(2-((2-(2,6-dioxopiperidin-3-yl)-1,3-dioxoisoindolin-4-yl)amino)ethoxy)ethoxy)ethyl)carbamoyl)cyclohexyl)-1H-pyrazol-4-yl)-2-(2-((2,2,2-trifluoroethyl)amino)pyridin-4-yl)oxazole-4-carboxamide] | – | – | > 1000 | > 1000 | – | –
O=C1CCC(N2C(=O)c3cccc(NCC4CCN(C[C@H]5CC[C@H](n6cc(NC(=O)c7cnn8ccc(N9CCOCC9)nc78)c(C(F)F)n6)CC5)CC4)c3C2=O)C(=O)N1 (stereo partly shown) [I-385] | – | – | < 50 | > 1000 | 10 to 100 | –
CN(Cc1ccc(OCCCNc2cccc3c2C(=O)N(C2CCC(=O)NC2=O)C3=O)nc1)C[C@H]1CC[C@H](n2cc(NC(=O)c3cnn4ccc(N5CCOCC5)nc34)c(C(F)F)n2)CC1 (stereo partly shown) [I-477, N-(3-(difluoromethyl)-1-((1r,4r)-4-((((6-(3-((2-(2,6-dioxopiperidin-3-yl)-1,3-dioxoisoindolin-4-yl)amino)propoxy)pyridin-3-yl)methyl)(methyl)amino)methyl)cyclohexyl)-1H-pyrazol-4-yl)-5-morpholinopyrazolo[1,5-a] pyrimidine-3-carboxamide] | 10 to 100 | 10 to 100 | 500 to 1000 | – | – | –
O=C1CCC(N2C(=O)c3cccc(NCCCOC[C@H]4CC[C@H](n5cc(NC(=O)c6cnn7ccc(N8C[C@H]9C[C@@H]8CO9)nc67)c(C(F)F)n5)CC4)c3C2=O)C(=O)N1 (stereo partly shown) [I-375] | – | – | 500 to 1000 | > 1000 | – | –
CN(CCC(C)(C)O)c1ccn2ncc(C(=O)Nc3cn([C@H]4CC[C@H](CN(C)[C@H]5CC[C@H](Nc6cccc7c6C(=O)N(C6CCC(=O)NC6=O)C7=O)CC5)CC4)nc3C(F)F)c2n1 (stereo partly shown) [I-504] | > 1000 | 10 to 100 | 100 to 500 | – | – | –
CN(CCCc1cccc2c1n(C)c(=O)n2C1CCC(=O)NC1=O)C[C@H]1CC[C@H](n2cc(NC(=O)c3coc(-c4ccnc(NCC5CC5)c4)n3)c(C(F)F)n2)CC1 (stereo partly shown) [I-130] | – | – | > 1000 | < 10 | – | –
CN(CCN1CCO[C@@H](CCNc2cccc3c2C(=O)N(C2CCC(=O)NC2=O)C3=O)C1)C[C@H]1CC[C@H](n2cc(NC(=O)c3cnn4ccc(N5C[C@H]6C[C@@H]5CO6)nc34)c(C(F)F)n2)CC1 (stereo partly shown) [I-337] | – | – | 50 to 100 | 100 to 1000 | 10 to 100 | –
O=C1CCC(N2C(=O)c3cccc(NC4CCN(C[C@H]5CC[C@H](n6cc(NC(=O)c7cnn8ccc(N9CCOCC9)nc78)c(C(F)F)n6)CC5)CC4)c3C2=O)C(=O)N1 (stereo partly shown) [I-218] | – | – | > 1000 | 100 to 1000 | 100 to 1000 | –
O=C1CCC(N2C(=O)c3cccc(N[C@H]4C[C@H](OC5CCN(C[C@H]6CC[C@H](n7cc(NC(=O)c8cnn9ccc(N%10C[C@H]%11C[C@@H]%10CO%11)nc89)c(C(F)F)n7)CC6)CC5)C4)c3C2=O)C(=O)N1 (stereo partly shown) [I-505] | 10 to 100 | < 10 | > 1000 | – | – | –
O=C1CCC(N2C(=O)c3cccc(N4CCC(CCCN5CCC(n6cc(NC(=O)c7cnn8ccc(N9CCOCC9)nc78)c(C(F)F)n6)CC5)CC4)c3C2=O)C(=O)N1 (stereo not shown) [I-228] | – | – | > 1000 | > 1000 | – | –
Cn1c(=O)n(C2CCC(=O)NC2=O)c2cccc(CN3CCC(CN4CCC(n5cc(NC(=O)c6cnn7ccc(N[C@@H]8CCCC[C@@H]8O)nc67)c(C(F)F)n5)CC4)CC3)c21 (stereo partly shown) [I-150] | – | – | < 50 | 10 to 100 | – | –
CN(CC1CCN(Cc2ccc3c(c2)n(C)c(=O)n3C2CCC(=O)NC2=O)CC1)C[C@H]1CC[C@H](n2cc(NC(=O)c3coc(-c4ccnc(NCC5CC5)c4)n3)c(C(F)F)n2)CC1 (stereo partly shown) [I-127] | – | – | > 1000 | < 10 | < 10 | –
Cc1nc2cccc(NCCCOC3CCN(C[C@H]4CC[C@H](n5cc(NC(=O)c6cnn7ccc(N8CCOCC8)nc67)c(C(F)F)n5)CC4)CC3)c2c(=O)n1C1CCC(=O)NC1=O (stereo partly shown) [I-211] | – | – | 50 to 100 | > 1000 | > 1000 | –
C=C(C)c1nn([C@H]2CC[C@H](CN(C)C3CCN(Cc4cccc5c4n(C)c(=O)n5C4CCC(=O)NC4=O)CC3)CC2)cc1NC(=O)c1cnn2ccc(NCC3CC3)nc12 (stereo partly shown) [I-173] | – | – | > 1000 | 100 to 1000 | – | –
CN(C[C@H]1CC[C@H](n2cc(NC(=O)c3cnn4ccc(N5CCOCC5)nc34)c(C(F)F)n2)CC1)[C@H]1CC[C@@H](Nc2cccc3c2C(=O)N(C2CCC(=O)NC2=O)C3=O)CC1 (stereo partly shown) [I-350] | – | – | > 1000 | 100 to 1000 | 10 to 100 | –
O=C1CCC(N2C(=O)c3cccc(NCC4CCC5(CC4)CN(C[C@H]4CC[C@H](n6cc(NC(=O)c7cnn8ccc(N9C[C@H]%10C[C@@H]9CO%10)nc78)c(C(F)F)n6)CC4)C5)c3C2=O)C(=O)N1 (stereo partly shown) [I-552] | 100 to 1000 | – | < 50 | – | – | –
CN(C[C@H]1CC[C@H](n2cc(NC(=O)c3cnn4ccc(N5CCOCC5)nc34)c(C(F)F)n2)CC1)C1CCN(Cc2cccc3c2n(C)c(=O)n3C2CCC(=O)NC2=O)CC1 (stereo partly shown) [I-213] | – | – | > 1000 | < 10 | – | –
